Active and inactive are the calls of the source. The rule behind the calls is not given here.
Legend:
Assay type in all cases: functional, organism-based
[1] = tested on: Monilinia fructicola; assay: Fungicidal activity against Monilinia fructicola isolate SCDL71.01 infected peach fruit assessed as decrease in sporulation area at 0.112 ml/l applied 24 hr prior to inoculation after 5 days relative to untreated-control
[2] = tested on: Monilinia fructicola; assay: Fungicidal activity against Monilinia fructicola isolate SCDL71.01 infected peach fruit assessed as decrease in brown rot disease incidence at 0.112 ml/l applied 24 hr after inoculation after 5 days relative to untreated-control
[3] = tested on: Monilinia fructicola; assay: Fungicidal activity against Monilinia fructicola isolate GADL133.04 infected peach fruit assessed as decrease in sporulation area at 0.112 ml/l applied 24 hr after inoculation after 5 days relative to untreated-control
[4] = tested on: Monilinia fructicola; assay: Fungicidal activity against Monilinia fructicola isolate GADL193.04 infected peach fruit assessed as decrease in sporulation area at 0.112 ml/l applied 24 hr after inoculation after 5 days relative to untreated-control
[5] = tested on: Monilinia fructicola; assay: Fungicidal activity against Monilinia fructicola isolate GADL193.04 assessed as reduction in colony diameter after 5 days
[6] = tested on: Monilinia fructicola; assay: Fungicidal activity against Monilinia fructicola isolate SCDL71.01 infected peach fruit assessed as decrease in sporulation area at 0.112 ml/l applied 24 hr after inoculation after 5 days relative to untreated-control
[7] = tested on: Monilinia fructicola; assay: Fungicidal activity against Monilinia fructicola isolate SCDL71.01 infected peach fruit assessed as decrease in brown rot disease incidence at 0.112 ml/l applied 24 hr prior to inoculation after 5 days relative to untreated-control
[8] = tested on: Monilinia fructicola; assay: Fungicidal activity against Monilinia fructicola isolate SCDL71.01 assessed as reduction in colony diameter after 5 days
[9] = tested on: Monilinia fructicola; assay: Fungicidal activity against Monilinia fructicola isolate GADL193.04 infected peach fruit assessed as decrease in brown rot disease incidence at 0.112 ml/l applied 24 hr prior to inoculation after 5 days relative to untreated-control
[10] = tested on: Monilinia fructicola; assay: Fungicidal activity against Monilinia fructicola isolate GADL133.04 assessed as reduction in colony diameter after 5 days
[11] = tested on: Monilinia fructicola; assay: Fungicidal activity against Monilinia fructicola isolate GADL133.04 infected peach fruit assessed as decrease in brown rot disease incidence at 0.112 ml/l applied 24 hr prior to inoculation after 5 days relative to untreated-control
[12] = tested on: Monilinia fructicola; assay: Fungicidal activity against Monilinia fructicola isolate GADL193.04 infected peach fruit assessed as decrease in brown rot disease incidence at 0.112 ml/l applied 24 hr after inoculation after 5 days relative to untreated-control
[13] = tested on: Monilinia fructicola; assay: Fungicidal activity against Monilinia fructicola isolate GADL133.04 infected peach fruit assessed as decrease in sporulation area at 0.112 ml/l applied 24 hr prior to inoculation after 5 days relative to untreated-control
[14] = tested on: Monilinia fructicola; assay: Fungicidal activity against Monilinia fructicola isolate GADL193.04 infected peach fruit assessed as decrease in sporulation area at 0.112 ml/l applied 24 hr prior to inoculation after 5 days relative to untreated-control
[15] = tested on: Monilinia fructicola; assay: Fungicidal activity against Monilinia fructicola isolate GADL133.04 infected peach fruit assessed as decrease in brown rot disease incidence at 0.112 ml/l applied 24 hr after inoculation after 5 days relative to untreated-control
[16] = tested on: Monilinia fructicola; assay: Fungicidal activity against Monilinia fructicola isolate GADL193.04 infected peach fruit assessed as decrease in brown rot disease incidence at 0.131 ml/l applied 24 hr after inoculation after 5 days relative to untreated-control
[17] = tested on: Monilinia fructicola; assay: Fungicidal activity against Monilinia fructicola isolate GADL193.04 infected peach fruit assessed as decrease in sporulation area at 0.131 ml/l applied 24 hr after inoculation after 5 days relative to untreated-control
[18] = tested on: Monilinia fructicola; assay: Fungicidal activity against Monilinia fructicola isolate GADL193.04 infected peach fruit assessed as decrease in sporulation area at 0.131 ml/l applied 24 hr prior to inoculation after 5 days relative to untreated-control
[19] = tested on: Monilinia fructicola; assay: Fungicidal activity against Monilinia fructicola isolate GADL133.04 infected peach fruit assessed as decrease in sporulation area at 0.131 ml/l applied 24 hr prior to inoculation after 5 days relative to untreated-control
[20] = tested on: Monilinia fructicola; assay: Fungicidal activity against Monilinia fructicola isolate GADL193.04 infected peach fruit assessed as decrease in brown rot disease incidence at 0.131 ml/l applied 24 hr prior to inoculation after 5 days relative to untreated-control
[21] = tested on: Monilinia fructicola; assay: Fungicidal activity against Monilinia fructicola isolate SCDL71.01 infected peach fruit assessed as decrease in brown rot disease incidence at 0.131 ml/l applied 24 hr prior to inoculation after 5 days relative to untreated-control
[22] = tested on: Monilinia fructicola; assay: Fungicidal activity against Monilinia fructicola isolate SCDL71.01 infected peach fruit assessed as decrease in sporulation area at 0.131 ml/l applied 24 hr after inoculation after 5 days relative to untreated-control
[23] = tested on: Monilinia fructicola; assay: Fungicidal activity against Monilinia fructicola isolate GADL133.04 infected peach fruit assessed as decrease in sporulation area at 0.131 ml/l applied 24 hr after inoculation after 5 days relative to untreated-control
[24] = tested on: Monilinia fructicola; assay: Fungicidal activity against Monilinia fructicola isolate SCDL71.01 infected peach fruit assessed as decrease in sporulation area at 0.131 ml/l applied 24 hr prior to inoculation after 5 days relative to untreated-control
[25] = tested on: Monilinia fructicola; assay: Fungicidal activity against Monilinia fructicola isolate GADL133.04 infected peach fruit assessed as decrease in brown rot disease incidence at 0.131 ml/l applied 24 hr after inoculation after 5 days relative to untreated-control
[26] = tested on: Monilinia fructicola; assay: Fungicidal activity against Monilinia fructicola isolate SCDL71.01 infected peach fruit assessed as decrease in brown rot disease incidence at 0.131 ml/l applied 24 hr after inoculation after 5 days relative to untreated-control
[27] = tested on: Monilinia fructicola; assay: Fungicidal activity against Monilinia fructicola isolate GADL133.04 infected peach fruit assessed as decrease in brown rot disease incidence at 0.131 ml/l applied 24 hr prior to inoculation after 5 days relative to untreated-control
[28] = tested on: Monilinia fructicola; assay: Fungicidal activity against Monilinia fructicola isolate GADL133.04 infected peach fruit assessed as decrease in sporulation area at 0.135 ml/l applied 24 hr prior to inoculation after 5 days relative to untreated-control
[29] = tested on: Monilinia fructicola; assay: Fungicidal activity against Monilinia fructicola isolate SCDL71.01 infected peach fruit assessed as decrease in brown rot disease incidence at 0.135 ml/l applied 24 hr prior to inoculation after 5 days relative to untreated-control
[30] = tested on: Monilinia fructicola; assay: Fungicidal activity against Monilinia fructicola isolate SCDL71.01 infected peach fruit assessed as decrease in brown rot disease incidence at 0.135 ml/l applied 24 hr after inoculation after 5 days relative to untreated-control
[31] = tested on: Monilinia fructicola; assay: Fungicidal activity against Monilinia fructicola isolate GADL193.04 infected peach fruit assessed as decrease in brown rot disease incidence at 0.135 ml/l applied 24 hr prior to inoculation after 5 days relative to untreated-control
[32] = tested on: Monilinia fructicola; assay: Fungicidal activity against Monilinia fructicola isolate GADL193.04 infected peach fruit assessed as decrease in brown rot disease incidence at 0.135 ml/l applied 24 hr after inoculation after 5 days relative to untreated-control
[33] = tested on: Monilinia fructicola; assay: Fungicidal activity against Monilinia fructicola isolate GADL193.04 infected peach fruit assessed as decrease in sporulation area at 0.135 ml/l applied 24 hr after inoculation after 5 days relative to untreated-control
[34] = tested on: Monilinia fructicola; assay: Fungicidal activity against Monilinia fructicola isolate SCDL71.01 infected peach fruit assessed as decrease in sporulation area at 0.135 ml/l applied 24 hr prior to inoculation after 5 days relative to untreated-control
[35] = tested on: Monilinia fructicola; assay: Fungicidal activity against Monilinia fructicola isolate GADL133.04 infected peach fruit assessed as decrease in sporulation area at 0.135 ml/l applied 24 hr after inoculation after 5 days relative to untreated-control
[36] = tested on: Monilinia fructicola; assay: Fungicidal activity against Monilinia fructicola isolate SCDL71.01 infected peach fruit assessed as decrease in sporulation area at 0.135 ml/l applied 24 hr after inoculation after 5 days relative to untreated-control
[37] = tested on: Monilinia fructicola; assay: Fungicidal activity against Monilinia fructicola isolate GADL133.04 infected peach fruit assessed as decrease in brown rot disease incidence at 0.135 ml/l applied 24 hr after inoculation after 5 days relative to untreated-control
[38] = tested on: Monilinia fructicola; assay: Fungicidal activity against Monilinia fructicola isolate GADL133.04 infected peach fruit assessed as decrease in brown rot disease incidence at 0.135 ml/l applied 24 hr prior to inoculation after 5 days relative to untreated-control
[39] = tested on: Monilinia fructicola; assay: Fungicidal activity against Monilinia fructicola isolate GADL193.04 infected peach fruit assessed as decrease in sporulation area at 0.135 ml/l applied 24 hr prior to inoculation after 5 days relative to untreated-control

With N#CC(CCc1ccc(Cl)cc1)(Cn1cncn1)c1ccccc1 (stereo not given) [FENBUCONAZOLE] the Activity [1] was “Active”, the Activity [2] was “Active” and the Activity [3] was “Active”. The Activity [4] was “Active”, the Activity [5] was “Active” and the Activity [6] was “Active”. For the same compound, the Activity [7] was “Active”, the EC50 [8] was 0.019 uL/ml and the Activity [9] was “Active”. For the same compound, the Activity [10] was “Active”, the Activity [11] was “Active” and the Activity [12] was “Active”. The Activity [13] was “Active”, the Activity [14] was “Active” and the Activity [15] was “Active”.
With CCCC1COC(Cn2cncn2)(c2ccc(Cl)cc2Cl)O1 (stereo not given) [PROPICONAZOLE] the Activity [16] was “Active”, the Activity [17] was “Active” and the Activity [18] was “Active”. For the same compound, the Activity [5] was “Active”, the Activity [19] was “Active” and the Activity [20] was “Active”. For the same compound, the Activity [21] was “Active”, the Activity [22] was “Active” and the Activity [23] was “Active”. For the same compound, the EC50 [8] was 0.023 uL/ml, the Activity [24] was “Active” and the Activity [10] was “Active”. The Activity [25] was “Active”, the Activity [26] was “Active” and the Activity [27] was “Active”.
With CC(C)(C)C(O)(CCc1ccc(Cl)cc1)Cn1cncn1 (stereo not given) [TEBUCONAZOLE] the Activity [28] was “Active”, the Activity [29] was “Active” and the Activity [30] was “Active”. For the same compound, the Activity [31] was “Active”, the Activity [32] was “Active” and the Activity [33] was “Active”. The Activity [5] was “Active”, the Activity [34] was “Active” and the Activity [35] was “Active”. The EC50 [8] was 0.018 uL/ml, the Activity [10] was “Active” and the Activity [36] was “Active”. For the same compound, the Activity [37] was “Active”, the Activity [38] was “Active” and the Activity [39] was “Active”.

— ChEMBL document CHEMBL3045830, “Differential effect of triazoles on mycelial growth and disease measurements of Monilinia fructicola isolates with reduced sensitivity to DMI fungicides” (Crop Prot, 2007)
